Measurements taken from patent publication US10144742B2 (Millennium Pharmaceuticals, Inc., priority 2014, dated 2018).
Like-named read-outs stand apart in the source and are kept apart here.

Legend:
hNAMPT protein = hNAMPT protein (Homo sapiens (Human), UniProt P43490); assay: NAMPT enzyme assay (TR-FRET/HTRF, BodiPY ligand, anti 6His-Tb); assay type: binding; conditions: for IC50: NAMPT IC50 range class, read-out: IC50; for inhibition at 1 µM: read-out: Percent Inhibition
Summary of the method: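 TR-FRET binding assay in which His-tagged human NAMPT with anti-6His-Tb is displaced by compound from a BodiPY ligand, incubated 1 h at rt in the dark. Excitation was at 320 nm, with the 520/486 nm emission ratio read. IC50 was fitted from inhibition relative to DMSO controls.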

PC3 cells = assay: PC3 growth inhibition (Cell-titer glo, 72 hours); assay type: cell-based; conditions: Homo sapiens, PC-3, PC3 cells, 72 hours, Cell-titer glo, read-out: Percent Inhibition (PC3 growth inhibition); for inhibition at 1 µM: compound concentration 1 μM; for inhibition at 1.667 µM: compound concentration 1.667 μM
Summary of the method: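 PC3 cells in RPMI1640 seeded overnight at 37 °C, 5% CO2, then exposed to compound diluted in AIM serum-free medium for 72 h. Viability by CellTiter-Glo luminescence vs DMSO controls; single-concentration % remaining viability (1 μM or 1.667 μM), or GI50/LD50 from curves.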

hNAMPT protein, sequence (P43490 whole entry): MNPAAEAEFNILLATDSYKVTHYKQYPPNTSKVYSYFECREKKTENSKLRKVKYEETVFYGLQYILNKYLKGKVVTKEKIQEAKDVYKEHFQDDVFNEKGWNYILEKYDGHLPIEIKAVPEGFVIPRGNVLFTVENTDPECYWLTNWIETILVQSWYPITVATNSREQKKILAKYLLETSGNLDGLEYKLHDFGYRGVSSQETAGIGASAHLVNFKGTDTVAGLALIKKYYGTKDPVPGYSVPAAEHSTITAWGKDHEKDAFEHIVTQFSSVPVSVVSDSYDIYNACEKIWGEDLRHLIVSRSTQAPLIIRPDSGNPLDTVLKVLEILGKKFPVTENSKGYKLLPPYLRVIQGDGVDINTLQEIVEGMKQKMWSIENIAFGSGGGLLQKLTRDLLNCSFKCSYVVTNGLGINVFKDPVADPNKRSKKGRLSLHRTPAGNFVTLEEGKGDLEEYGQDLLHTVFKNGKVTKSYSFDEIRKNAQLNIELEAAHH

Row | SMILES | IC50 (hNAMPT protein) | inhibition at 1 µM (hNAMPT protein) | inhibition at 1 µM (PC3 cells) | inhibition at 1 µM (hNAMPT protein; compound concentration 1 μM) | inhibition at 1.667 µM (PC3 cells)
1 | O=C(NCCCc1ccccn1)c1ccc2nc(-c3ccc(F)cc3)c(-c3ccc(F)cc3)nc2c1 [Compound I-180, 2,3-Bis(4-fluorophenyl)-N-[3-(pyridin-2-yl)propyl]quinoxaline-6-carboxamide] | 2000 to 10000 nM | 27% | 102% |  | 
2 | COc1cccc(-c2nc3ccc(C(=O)NCCc4cccnc4)cc3nc2-c2cccc(OC)c2)c1 [Compound I-181, 2,3-bis(3-methoxyphenyl)-N-[2-(pyridin-3-yl)ethyl]quinoxaline-6-carboxamide] | < 100 nM |  | 0% | 100% | 
3 | CS(=O)(=O)c1cccc(-c2nc3ccc(C(=O)NCCCn4ccnc4)cc3nc2-c2ccccc2)c1 [Compound I-182, N-[3-(1H-imidazol-1-yl)propyl]-2-[3-(methylsulfonyl)phenyl]-3-phenylquinoxaline-6-carboxamide] | 100 to 500 nM |  | -7% | 83% | 
4 | COc1cccc(-c2nc3cc(C(=O)NCCCc4ncc[nH]4)ccc3nc2N2CCCCC2)c1 [Compound I-183, N-[3-(1H-imidazol-2-yl)propyl]-3-(3-methoxyphenyl)-2-(piperidin-1-yl)quinoxaline-6-carboxamide] | < 100 nM |  |  | > 99% | 2%
5 | O=C(NCCc1cnccn1)c1ccc2nc(-c3ccc(F)cc3)c(-c3ccc(F)cc3)nc2c1 [Compound I-184, 2,3-bis(4-fluorophenyl)-N-[2-(pyrazin-2-yl)ethyl]quinoxaline-6-carboxamide] | 1000 to 2000 nM |  | 101% | 39% | 
6 | COc1cccc(-c2nc3ccc(C(=O)NCCCn4ccnc4)cc3nc2-c2ccccc2)c1 [Compound I-187, N-[3-(1H-imidazol-1-yl)propyl]-2-(3-methoxyphenyl)-3-phenylquinoxaline-6-carboxamide] | 100 to 500 nM |  | -8% | 84% | 
7 | CC(C)(C)OC(=O)N1CCC(C2CCN(c3nc4ccc(C(=O)NCCCn5ccnc5)cc4nc3-c3ccccc3)CC2)CC1 [Compound I-188, tert-butyl 1′-(6-{[3-(1H-imidazol-1-yl)propyl]carbamoyl}-3-phenylquinoxalin-2-yl)-4,4′-bipiperidine-1-carboxylate] | 100 to 500 nM |  | -7% | 83% | 
8 | COc1cccc(-c2nc3cc(C(=O)NCCc4cccnc4)ccc3nc2N2CCOCC2)c1 [Compound I-189, 3-(3-methoxyphenyl)-2-(morpholin-4-yl)-N-[2-(pyridin-3-yl)ethyl]quinoxaline-6-carboxamide] | < 100 nM |  |  | 91% | 2%
9 | NC(=O)c1ccc(-c2nc3ccc(C(=O)NCCCn4ccnc4)cc3nc2-c2ccccc2)cc1 [Compound I-190, 2-(4-carbamoylphenyl)-N-[3-(1H-imidazol-1-yl)propyl]-3-phenylquinoxaline-6-carboxamide] | 100 to 500 nM |  | -6% | 74% | 
10 | O=C(NCCCn1ccnc1)c1ccc2nc(-c3ccccc3)c(NCc3ccccc3)nc2c1 [Compound I-191, 3-(benzylamino)-N-[3-(1H-imidazol-1-yl)propyl]-2-phenylquinoxaline-6-carboxamide] | 2000 to 10000 nM |  | 24% | 16% | 
11 | O=C(NCCCc1c[nH]cn1)c1ccc2nc(-c3ccc(F)cc3)c(-c3ccc(F)cc3)nc2c1 [Compound I-192, 2,3-bis(4-fluorophenyl)-N-[3-(1H-imidazol-4-yl)propyl]quinoxaline-6-carboxamide] | 100 to 500 nM |  | -7% | 78% | 
12 | O=C(NCCCc1cncnc1)c1ccc2nc(N3CCOCC3)c(-c3ccc(F)cc3)nc2c1 [Compound I-193, 3-(4-Fluorophenyl)-2-(morpholin-4-yl)-N-[3-(pyrimidin-5-yl)propyl]quinoxaline-6-carboxamide] | 100 to 500 nM | 73% |  |  | > 99%
13 | Cn1cccc1-c1nc2cc(C(=O)NCCCn3ccnc3)ccc2nc1-c1ccccc1 [Compound I-194, N-[3-(1H-imidazol-1-yl)propyl]-3-(1-methyl-1H-pyrrol-2-yl)-2-phenylquinoxaline-6-carboxamide] | 2000 to 10000 nM |  | 29% | 30% | 
14 | O=C(NCCCc1ncc[nH]1)c1ccc2nc(N3CCCCC3)c(-c3cccs3)nc2c1 [Compound I-195, N-[3-(1H-imidazol-2-yl)propyl]-2-(piperidin-1-yl)-3-(2-thienyl)quinoxaline-6-carboxamide] | < 100 nM |  |  | > 99% | 2%
15 | COc1cccc(-c2nc3cc(C(=O)NCCc4cccnc4)ccc3nc2N2CCCCC2)c1 [Compound I-196, 3-(3-methoxyphenyl)-2-(piperidin-1-yl)-N-[2-(pyridin-3-yl)ethyl]quinoxaline-6-carboxamide] | < 100 nM |  |  | 98% | 2%
16 | COc1cccc(-c2nc3cc(C(=O)NCCCc4cccnc4)ccc3nc2N2CCCCC2)c1 [Compound I-197, 3-(3-methoxyphenyl)-2-(piperidin-1-yl)-N-[3-(pyridin-3-yl)propyl]quinoxaline-6-carboxamide] | < 100 nM |  |  | > 99% | 2%
17 | O=C(NCCCc1ncc[nH]1)c1ccc2nc(N3CCCCC3)c(-c3ccc(Cl)cc3)nc2c1 [Compound I-198, 3-(4-chlorophenyl)-N-[3-(1H-imidazol-2-yl)propyl]-2-(piperidin-1-yl)quinoxaline-6-carboxamide] | < 100 nM |  |  | > 99% | 3%
18 | O=C(NCCCn1ccnc1)c1ccc2nc(N3CCC(N4CCOCC4)CC3)c(-c3ccccc3)nc2c1 [Compound I-199, N-[3-(1H-imidazol-1-yl)propyl]-2-[4-(morpholin-4-yl)piperidin-1-yl]-3-phenylquinoxaline-6-carboxamide] | < 100 nM |  | 0% | 101% | 
19 | Cn1cc2c(n1)CN(c1nc3ccc(C(=O)NCCCn4ccnc4)cc3nc1-c1ccccc1)CC2 [Compound I-200, N-[3-(1H-imidazol-1-yl)propyl]-2-(2-methyl-2,4,5,7-tetrahydro-6H-pyrazolo[3,4-c]pyridin-6-yl)-3-phenylquinoxaline-6-carboxamide] | 100 to 500 nM |  | -7% | 85% | 
20 | O=C(NCCCn1ccnc1)c1ccc2nc(-c3cccnc3)c(-c3ccccc3)nc2c1 [Compound I-201, N-[3-(1H-imidazol-1-yl)propyl]-3-phenyl-2-(pyridin-3-yl)quinoxaline-6-carboxamide] | 500 to 1000 nM |  | -7% | 62% | 
21 | O=C(NCCCc1ncc[nH]1)c1ccc2nc(C3=CCC(O)CC3)c(-c3cccs3)nc2c1 (stereo not drawn) [Compound I-202, 2-(4-Hydroxycyclohex-1-en-1-yl)-N-[3-(1H-imidazol-2-yl)propyl]-3-(2-thienyl)quinoxaline-6-carboxamide] | < 100 nM |  |  | > 99% | 2%
22 | Cn1ccc(-c2nc3ccc(C(=O)NCCCn4ccnc4)cc3nc2-c2ccccc2)n1 [Compound I-203, N-[3-(1H-imidazol-1-yl)propyl]-2-(1-methyl-1H-pyrazol-3-yl)-3-phenylquinoxaline-6-carboxamide] | 1000 to 2000 nM |  | -8% | 37% | 
23 | O=C(NCc1cn2cccnc2n1)c1ccc2nc(N3CCC(N4CCOCC4)CC3)c(-c3ccc(F)cc3)nc2c1 [Compound I-204, 3-(4-fluorophenyl)-N-(imidazo[1,2-a]pyrimidin-2-ylmethyl)-2-[4-(morpholin-4-yl)piperidin-1-yl]quinoxaline-6-carboxamide] | < 100 nM |  |  | > 99% | 63%
24 | CCOC(=O)CCc1ccc(-c2nc3ccc(C(=O)NCCCn4ccnc4)cc3nc2-c2ccccc2)cc1 [Compound I-205, ethyl 3-[4-(6-{[3-(1H-imidazol-1-yl)propyl]carbamoyl}-3-phenylquinoxalin-2-yl)phenyl]propanoate] | 100 to 500 nM |  | 104% | 84% | 
25 | O=C(NCCCn1ccnc1)c1ccc2nc(N3CCCC3)c(-c3ccccc3)nc2c1 [Compound I-206, N-[3-(1H-imidazol-1-yl)propyl]-3-phenyl-2-(pyrrolidin-1-yl)quinoxaline-6-carboxamide] | 100 to 500 nM |  | -7% | 75% | 
26 | CCN(CC)c1nc2ccc(C(=O)NCCCn3ccnc3)cc2nc1-c1ccccc1 [Compound I-207, 2-(diethylamino)-N-[3-(1H-imidazol-1-yl)propyl]-3-phenylquinoxaline-6-carboxamide] | 100 to 500 nM |  | -7% | 69% | 
27 | O=C(NCCCn1ccnc1)c1ccc2nc(-c3ccc4cc[nH]c4c3)c(-c3ccccc3)nc2c1 [Compound I-208, N-[3-(1H-imidazol-1-yl)propyl]-2-(1H-indol-6-yl)-3-phenylquinoxaline-6-carboxamide] | 500 to 1000 nM |  | -6% | 55% | 
28 | O=C(NCCCn1ccnc1)c1ccc2nc(-c3cccc(Cl)c3)c(-c3ccccc3)nc2c1 [Compound I-209, 2-(3-chlorophenyl)-N-[3-(1H-imidazol-1-yl)propyl]-3-phenylquinoxaline-6-carboxamide] | 100 to 500 nM |  | -7% | 74% | 
